This passage reports IC50 results from patent publication US7973069B2 (PTC Therapeutics, Inc., priority 2004, dated 2011).

Molecules are shown by their SMILES. Values joined by “and” are separate entries in the source; they are usually repeats but may differ in a detail not shown here. Equal entries are not always repeated.

What is called IC50 is the concentration at which inhibition is half-maximal. Lower therefore signals higher potency.

In this test the test system is HCV replicon. It is filed as cell-based.
For `CCNC(=O)Nc1ccc(-c2c(C#N)c3ccc(OCCCN4CCOCC4)cc3n2CC)cc1` [Compound 1124], the IC50 was < 0.5 µM and 0.5 to 2 µM.

The molecule `CC(C)OC(=O)Nc1ccc(-c2c(C#N)c3ccc(OCCn4ccnc4)cc3n2C2CCC2)cc1` [Compound 1275] yielded an IC50 below 0.5 µM. In the case of `CCn1c(-c2ccc(NC(=O)C3CC3)cc2)c(C#N)c2ccc(OCCn3cccn3)cc21` [Compound 1184] it was 0.5 to 2 µM; in that of `CCOc1ccc2c(C#N)c(-c3cccc(NC(=O)OCC(C)C)c3)n(C3CCC3)c2c1` [Compound 1037], 0.5 to 2 µM; in that of `CCOc1ccc2c(c1)c(C#N)c(-c1ccc(NS(=O)(=O)CC)cc1)n2C1CCC1` [Compound 1228], 0.5 to 2 µM. On to `COc1ccc2c(C#N)c(-c3ccc(NS(=O)(=O)C4CC4)cc3)n(CC3CC3)c2c1` [Compound 982], for which the IC50 was above 2 µM.

In turn, `CCn1c(-c2ccc(NC(=O)OCC(C)C)cc2)c(C#N)c2ccc(OCCF)cc21` [Compound 947] showed an IC50 below 0.5 µM. As to `CCCn1c(-c2ccc(NC(=O)NC(C)CC)cc2)c(C#N)c2ccc(OC)cc21` (stereo not shown) [Compound 1119], the IC50 was in the range of 0.5 to 2 µM. As for `CCCCOC(=O)Nc1ccc(-c2c(C#N)c3ccc(OC(F)F)cc3n2CC)cc1` [Compound 1133], the IC50 was 0.5 to 2 µM. In the case of `CCCNC(=O)Nc1ccc(-c2c(C#N)c3ccc(OC(F)F)cc3n2CC)cc1` [Compound 1136] it was 0.5 to 2 µM; in that of `CCNC(=O)Nc1ccc(-c2c(C#N)c3ccc(OCC)cc3n2CC(C)C)cc1` [Compound 1060], 0.5 to 2 µM; in that of `CC(C)NC(=O)Nc1ccc(-c2c(C#N)c3ccc(OCCN4CCOCC4)cc3n2C2CCC2)cc1` [Compound 1315], 0.5 to 2 µM. As for `CCOc1ccc2c(C#N)c(-c3ccc(NC(=O)OC4CCCC4)cc3)n(C3CCC3)c2c1` [Compound 1109], the IC50 was below 0.5 µM. For the molecule `CC(C)OC(=O)Nc1ccc(-c2c(C#N)c3ccc(OCCF)cc3n2C2CCC2)cc1` [Compound 1174], the IC50 is below 0.5 µM. Consider `COC(=O)c1ccc2c(C#N)c(-c3ccc(NC(=O)NC(C)C)cc3)n(C3CCC3)c2c1` [Compound 1301], for which the IC50 was below 0.5 µM. Next, `CCC(=O)Nc1ccc(-c2c(C#N)c3ccc(OC(F)(F)F)cc3n2CC)cc1` [Compound 914]: 0.5 to 2 µM; `CCCOc1ccc2c(C#N)c(-c3ccc(NC(=O)OCC4CC4)cc3)n(C(C)C)c2c1` [Compound 1241]: below 0.5 µM.

The molecule `CCOc1ccc2c(C#N)c(-c3ccc(NC(=O)OCC4CC4)cc3)n(C3CCC3)c2c1` [Compound 1146] returned a half-maximal inhibitory concentration (IC50) below 0.5 µM. In the case of `CCCCn1c(-c2ccc(NC(=O)NCCc3ccccc3)cc2)c(C#N)c2ccc(OCC)cc21` [Compound 1019] it was below 0.5 µM. In the case of `CCNC(=O)Nc1ccc(-c2c(C#N)c3ccc(OCC)cc3n2C(C)C)cc1` [Compound 1098] it was 0.5 to 2 µM; in that of `CCn1c(-c2ccc(NS(=O)(=O)C(C)C)cc2)c(C#N)c2ccc(OCCF)cc21` [Compound 912], 0.5 to 2 µM. `C=CCOC(=O)Nc1ccc(-c2c(C#N)c3cc(OC)ccc3n2C2CCC2)cc1` [Compound 1180] gave an IC50 of 0.5 to 2 µM.

Turning to `CCCn1c(-c2ccc(NS(=O)(=O)CCC)cc2)c(C#N)c2ccc(OCc3ccccc3)cc21` [Compound 923], the IC50 is 0.5 to 2 µM. For `C=CCOC(=O)Nc1ccc(-c2c(C#N)c3ccc(OC(F)F)cc3n2CC)cc1` [Compound 1135], the IC50 was below 0.5 µM. In turn, `CCCOc1ccc2c(C#N)c(-c3ccc(NC(=O)OCC4(C)CC4)cc3)n(C(C)C)c2c1` [Compound 1243] displayed an IC50 below 0.5 µM.

`CCOc1ccc2c(C#N)c(-c3ccc(NC(=O)OC(C)C(C)C)cc3)n(C3CCC3)c2c1` (stereo not shown) [Compound 1290]: the IC50 is below 0.5 µM. Next, `CCCOc1ccc2c(C#N)c(-c3ccc(NC(=O)OC4CCOC4)cc3)n(C(C)C)c2c1` (stereo not shown) [Compound 1249]: below 0.5 µM. `CCCCn1c(-c2cccc(NC(=O)OCC)c2)c(C#N)c2ccc(OCC)cc21` [Compound 1020]: the IC50 is < 0.5 µM and 0.5 to 2 µM.

In the case of `CCCCS(=O)(=O)Nc1ccc(-c2c(C#N)c3ccc(OC(F)(F)F)cc3n2CC)cc1` [Compound 885], the IC50 is below 0.5 µM. Next, `CCCn1c(-c2ccc(NC(=O)OC)cc2)c(C#N)c2ccc(OCC)cc21` [Compound 1062]: 0.5 to 2 µM; `CCn1c(-c2ccc(N3CCOC3=O)cc2)c(C#N)c2ccc(OCCCn3cncn3)cc21` [Compound 1084]: 0.5 to 2 µM; `CC(C)n1c(-c2ccc(NS(=O)(=O)C3CC3)cc2)c(C#N)c2ccc(OC(F)F)cc21` [Compound 868]: below 0.5 µM. Next, `CCCCS(=O)(=O)Nc1ccc(-c2c(C#N)c3ccc(OCCF)cc3n2CC)cc1` [Compound 953]: 0.5 to 2 µM. `CCn1c(-c2ccc(NC(=O)C3CC3)cc2)c(C#N)c2ccc(OCCN3CCN(C)CC3)cc21` [Compound 952] displayed an IC50 of 0.5 to 2 µM. `CCOc1ccc2c(C#N)c(-c3ccc(NC(=O)OC(C)C)cc3)n(CC3CC3)c2c1` [Compound 1150]: the half-inhibitory concentration (IC50) was below 0.5 µM. `CCOc1ccc2c(C#N)c(-c3ccc(N(CC)CC)cc3)n(C3CC3)c2c1` [Compound 1310] showed an IC50 of 0.5 to 2 µM.

As to `CCOC(=O)Nc1ccc(-c2c(C#N)c3ccc(OC)cc3n2CC)cc1F` [Compound 876], the 50% inhibitory concentration (IC50) lay in the range of 0.5 to 2 µM. In the case of `CCN(C)CCOc1ccc2c(C#N)c(-c3ccc(NC(=O)OC(C)C)cc3)n(C3CCC3)c2c1` [Compound 1270] it was below 0.5 µM; in that of `CCn1c(-c2ccc(NC(=O)OC)cc2)c(C#N)c2ccc(OC(F)(F)F)cc21` [Compound 886], 0.5 to 2 µM. Regarding `CCn1c(-c2ccc(NC(=O)OC)cc2)c(C#N)c2ccc(OCCCN3CCOCC3)cc21` [Compound 1112], the half-maximal inhibitory concentration (IC50) fell in the range of 0.5 to 2 µM. The molecule `C=CCNC(=O)Nc1ccc(-c2c(C#N)c3cc(OC)ccc3n2CC)cc1` [Compound 1013] yielded an IC50 of 0.5 to 2 µM. Next, `CCC(C)OC(=O)Nc1ccc(-c2c(C#N)c3ccc(OCC4CCCO4)cc3n2C2CCC2)cc1` (stereo not shown) [Compound 1283]: below 0.5 µM; `CCn1c(-c2ccc(NS(C)(=O)=O)c(C)c2)c(C#N)c2ccc(OC)cc21` [Compound 959]: 0.5 to 2 µM. Molecule `CC(C)NC(=O)Nc1ccc(-c2c(C#N)c3ccc(OCCNC4CC4)cc3n2C2CCC2)cc1` [Compound 1317] had an IC50 below 0.5 µM. `N#Cc1c(-c2ccc(NC(=O)OC3CCCC3)cc2)n(C2CCC2)c2cc(OC(F)F)ccc12` [Compound 1186]: the IC50 fell in the range of 0.5 to 2 µM.

The molecule `CCOC(=O)Nc1ccc(-c2c(C#N)c3ccc(OCCCCl)cc3n2CC)cc1` [Compound 1031] gave an IC50 below 0.5 µM. Molecule `CCOP(=O)(Nc1ccc(-c2c(C#N)c3ccc(OC)cc3n2CC)cc1)OCC` [Compound 943] gave an IC50 of 0.5 to 2 µM.

On to `CCn1c(-c2ccc(NC(=O)NC(C)C)c(F)c2)c(C#N)c2ccc(OC)cc21` [Compound 911], for which the IC50 lay within 0.5 to 2 µM. The molecule `CC(OC(=O)Nc1ccc(-c2c(C#N)c3ccc(OC(F)F)cc3n2CC2CC2)cc1)C1CC1` (stereo not shown) [Compound 1267] registered an IC50 of 0.5 to 2 µM. `CCNC(=O)Nc1ccc(-c2c(C#N)c3ccc(OCC)cc3n2C2CCCC2)cc1` [Compound 1143] registered an IC50 below 0.5 µM. As for `N#Cc1c(-c2ccc(NC(=O)NC3CCC3)cc2)n(C2CCC2)c2cc(OCCCCN3CCCC3)ccc12` [Compound 1259], the IC50 is below 0.5 µM. The molecule `CCn1c(-c2ccc(NC(=O)N3CCOCC3)cc2)c(C#N)c2ccc(OC)cc21` [Compound 1087] showed an IC50 of 0.5 to 2 µM.
